Measurements reported in PubChem BioAssay AID2060909 (Molecular Pharmacology Branch, DTP, NCI, 2025).

Tested on: 362531-283-R-J2-PDC complex spheroid viability
Test: Anticancer human tumor 362531-283-R-J2-PDC patient-derived colon adenocarcinoma cell line growth inhibition [RAS]
Conditions: for IC50: curve of first compound; for viability, T/C: stronger effect = lower value
How it was run: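 Agents were tested in combination matrices in half-log decrements from a top concentration at or near clinical Cmax (10 microM if undetermined). Targets were multi-cell spheroids of tumour lines plus HUVEC and MSC stromal cells.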

[1] = second compound 0.000949 µM, first compound 0.00316 µM
[2] = second compound 0.000949 µM, first compound 0.01 µM
[3] = second compound 0.000949 µM, first compound 0.0316 µM
[4] = second compound 0.000949 µM, first compound 0.1 µM
[5] = second compound 0.000949 µM, first compound 0.316 µM
[6] = second compound 0.000949 µM, first compound 1 µM
[7] = second compound 0.003 µM, first compound 0.00316 µM
[8] = second compound 0.003 µM, first compound 0.01 µM
[9] = second compound 0.003 µM, first compound 0.0316 µM
[10] = second compound 0.003 µM, first compound 0.1 µM
[11] = second compound 0.003 µM, first compound 0.316 µM
[12] = second compound 0.003 µM, first compound 1 µM
[13] = second compound 0.00949 µM, first compound 0.00316 µM
[14] = second compound 0.00949 µM, first compound 0.01 µM
[15] = second compound 0.00949 µM, first compound 0.0316 µM
[16] = second compound 0.00949 µM, first compound 0.1 µM
[17] = second compound 0.00949 µM, first compound 0.316 µM
[18] = second compound 0.00949 µM, first compound 1 µM
[19] = second compound 0.03 µM, first compound 0.00316 µM
[20] = second compound 0.03 µM, first compound 0.01 µM
[21] = second compound 0.03 µM, first compound 0.0316 µM
[22] = second compound 0.03 µM, first compound 0.1 µM
[23] = second compound 0.03 µM, first compound 0.316 µM
[24] = second compound 0.03 µM, first compound 1 µM
[25] = second compound 0.0949 µM, first compound 0.00316 µM
[26] = second compound 0.0949 µM, first compound 0.01 µM
[27] = second compound 0.0949 µM, first compound 0.0316 µM
[28] = second compound 0.0949 µM, first compound 0.1 µM
[29] = second compound 0.0949 µM, first compound 0.316 µM
[30] = second compound 0.0949 µM, first compound 1 µM
[31] = second compound 0.3 µM, first compound 0.00316 µM
[32] = second compound 0.3 µM, first compound 0.01 µM
[33] = second compound 0.3 µM, first compound 0.0316 µM
[34] = second compound 0.3 µM, first compound 0.1 µM
[35] = second compound 0.3 µM, first compound 0.316 µM
[36] = second compound 0.3 µM, first compound 1 µM
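Further: spheroids exposed to the agents for 7 days before readout.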
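Wherever viability, T/C is given: luminescence viability as percent of DMSO vehicle control wells.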

C=CC(=O)N1CCN(c2nc(OCC3CCCN3C)nc3c(F)c(-c4nc(N)cc(C)c4C(F)(F)F)c(Cl)cc23)C(C)C1 (stereo unspecified) + CCn1c(-c2cccnc2C(C)OC)c2c3cc(ccc31)N1CCOC(CC(NC(=O)C(C(C)C)N(C)C(=O)C3(F)CCN(C(=O)C#CC(C)(C)N(C)C)CC3)C(=O)N3CCCC(N3)C(=O)OCC(C)(C)C2)C1
IC50 (second compound 0.000949 µM): > 1000 nM | IC50 (second compound 0.003 µM): > 1000 nM | IC50 (second compound 0.00949 µM): > 1000 nM | IC50 (second compound 0.03 µM): > 1000 nM | IC50 (second compound 0.0949 µM): > 1000 nM | IC50 (second compound 0.3 µM): > 1000 nM | viability, T/C [1]: 98.9% | viability, T/C [2]: 106% | viability, T/C [3]: 106% | viability, T/C [4]: 97% | viability, T/C [5]: 107% | viability, T/C [6]: 95.2% | viability, T/C [7]: 111% | viability, T/C [8]: 104% | viability, T/C [9]: 98.5% | viability, T/C [10]: 92.4% | viability, T/C [11]: 96.1% | viability, T/C [12]: 91.8% | viability, T/C [13]: 101% | viability, T/C [14]: 122% | viability, T/C [15]: 97.2% | viability, T/C [16]: 100% | viability, T/C [17]: 101% | viability, T/C [18]: 98.8% | viability, T/C [19]: 100% | viability, T/C [20]: 117% | viability, T/C [21]: 87% | viability, T/C [22]: 96.2% | viability, T/C [23]: 101% | viability, T/C [24]: 106% | viability, T/C [25]: 93.6% | viability, T/C [26]: 95.7% | viability, T/C [27]: 103% | viability, T/C [28]: 101% | viability, T/C [29]: 95.6% | viability, T/C [30]: 113% | viability, T/C [31]: 100% | viability, T/C [32]: 109% | viability, T/C [33]: 108% | viability, T/C [34]: 103% | viability, T/C [35]: 94.4% | viability, T/C [36]: 100%

CC(C)n1nc(-c2ccc3oc(N)nc3c2)c2c(N)ncnc21 + C#Cc1c(F)ccc2cc(O)cc(-c3ncc4c(N5CC6CCC(C5)N6)nc(OCC56CCCN5CC(F)C6)nc4c3F)c12
IC50 (second compound 0.0316 µM): > 100 nM | IC50 (second compound 0.1 µM): > 100 nM | IC50 (second compound 0.316 µM): 20.5 nM | IC50 (second compound 1 µM): 13.1 nM | IC50 (second compound 3.16 µM): 3.09 nM | IC50 (second compound 10 µM): < 0.316 nM | viability, T/C (second compound 0.0316 µM, first compound 0.000316 µM): 96% | viability, T/C (second compound 0.0316 µM, first compound 0.001 µM): 87.6% | viability, T/C (second compound 0.0316 µM, first compound 0.00316 µM): 91.9% | viability, T/C (second compound 0.0316 µM, first compound 0.01 µM): 78.7% | viability, T/C (second compound 0.0316 µM, first compound 0.0316 µM): 50.2% | viability, T/C (second compound 0.0316 µM, first compound 0.1 µM): 53.2% | viability, T/C (second compound 0.1 µM, first compound 0.000316 µM): 104% | viability, T/C (second compound 0.1 µM, first compound 0.001 µM): 98% | viability, T/C (second compound 0.1 µM, first compound 0.00316 µM): 86.3% | viability, T/C (second compound 0.1 µM, first compound 0.01 µM): 68% | viability, T/C (second compound 0.1 µM, first compound 0.0316 µM): 66.6% | viability, T/C (second compound 0.1 µM, first compound 0.1 µM): 48.7% | viability, T/C (second compound 0.316 µM, first compound 0.000316 µM): 91.9% | viability, T/C (second compound 0.316 µM, first compound 0.001 µM): 94.5% | viability, T/C (second compound 0.316 µM, first compound 0.00316 µM): 85.6% | viability, T/C (second compound 0.316 µM, first compound 0.01 µM): 62.5% | viability, T/C (second compound 0.316 µM, first compound 0.0316 µM): 41.1% | viability, T/C (second compound 0.316 µM, first compound 0.1 µM): 41.5% | viability, T/C (second compound 1 µM, first compound 0.000316 µM): 80.4% | viability, T/C (second compound 1 µM, first compound 0.001 µM): 86.2% | viability, T/C (second compound 1 µM, first compound 0.00316 µM): 78.2% | viability, T/C (second compound 1 µM, first compound 0.01 µM): 51.9% | viability, T/C (second compound 1 µM, first compound 0.0316 µM): 45.9% | viability, T/C (second compound 1 µM, first compound 0.1 µM): 38.4% | viability, T/C (second compound 3.16 µM, first compound 0.000316 µM): 74.2% | viability, T/C (second compound 3.16 µM, first compound 0.001 µM): 55.2% | viability, T/C (second compound 3.16 µM, first compound 0.00316 µM): 57.4% | viability, T/C (second compound 3.16 µM, first compound 0.01 µM): 35.3% | viability, T/C (second compound 3.16 µM, first compound 0.0316 µM): 33.6% | viability, T/C (second compound 3.16 µM, first compound 0.1 µM): 26.1% | viability, T/C (second compound 10 µM, first compound 0.000316 µM): 42.9% | viability, T/C (second compound 10 µM, first compound 0.001 µM): 42.5% | viability, T/C (second compound 10 µM, first compound 0.00316 µM): 34% | viability, T/C (second compound 10 µM, first compound 0.01 µM): 25.5% | viability, T/C (second compound 10 µM, first compound 0.0316 µM): 20.1% | viability, T/C (second compound 10 µM, first compound 0.1 µM): 18.3%

C=CC(=O)Nc1cc(Nc2nccc(-c3cn(C)c4ccccc34)n2)c(OC)cc1N(C)CCN(C)C + CCn1c(-c2cccnc2C(C)OC)c2c3cc(ccc31)N1CCOC(CC(NC(=O)C(C(C)C)N(C)C(=O)C3(F)CCN(C(=O)C#CC(C)(C)N(C)C)CC3)C(=O)N3CCCC(N3)C(=O)OCC(C)(C)C2)C1
IC50 (second compound 0.000949 µM): > 1000 nM | IC50 (second compound 0.003 µM): > 1000 nM | IC50 (second compound 0.00949 µM): > 1000 nM | IC50 (second compound 0.03 µM): > 1000 nM | IC50 (second compound 0.0949 µM): > 1000 nM | IC50 (second compound 0.3 µM): > 1000 nM | viability, T/C [1]: 92.4% | viability, T/C [2]: 93.8% | viability, T/C [3]: 104% | viability, T/C [4]: 98.1% | viability, T/C [5]: 98% | viability, T/C [6]: 75.1% | viability, T/C [7]: 108% | viability, T/C [8]: 107% | viability, T/C [9]: 103% | viability, T/C [10]: 98.6% | viability, T/C [11]: 95.4% | viability, T/C [12]: 68.8% | viability, T/C [13]: 112% | viability, T/C [14]: 103% | viability, T/C [15]: 101% | viability, T/C [16]: 104% | viability, T/C [17]: 101% | viability, T/C [18]: 82.2% | viability, T/C [19]: 98.6% | viability, T/C [20]: 99.9% | viability, T/C [21]: 100% | viability, T/C [22]: 101% | viability, T/C [23]: 101% | viability, T/C [24]: 82.7% | viability, T/C [25]: 98.4% | viability, T/C [26]: 97.1% | viability, T/C [27]: 99% | viability, T/C [28]: 106% | viability, T/C [29]: 106% | viability, T/C [30]: 79.2% | viability, T/C [31]: 91.3% | viability, T/C [32]: 90.1% | viability, T/C [33]: 99.6% | viability, T/C [34]: 96.6% | viability, T/C [35]: 104% | viability, T/C [36]: 83.6%
